Data: the supplement of paper PMC13380429

What was measured:
Details in all cases: 72 h
Calu-3 [1] = test: relative viability EC50 (midpoint between 100% and the lowest measured viability); higher = less toxic
Vero E6 [2] = test: as above
Caco-2 [3] = test: as above
U2OS [4] = test: as above
HepG2 [5] = test: as above
Calu-3 [6] = test: drug sensitivity score (DSS) for viability; higher = more toxic; extreme values may be limits of the assay
Vero E6 [7] = test: as above
Caco-2 [8] = test: as above
U2OS [9] = test: as above
HepG2 [10] = test: as above
Calu-3 [11] = test: cell viability relative to DMSO; higher = less toxic
Vero E6 [12] = test: as above
Caco-2 [13] = test: as above
U2OS [14] = test: as above
HepG2 [15] = test: as above

Structure (SMILES)	relative viability EC50 (Calu-3 [1]) [µM]	relative viability EC50 (Vero E6 [2]) [µM]	relative viability EC50 (Caco-2 [3]) [µM]	relative viability EC50 (U2OS [4]) [µM]	relative viability EC50 (HepG2 [5]) [µM]	drug sensitivity score (Calu-3 [6])	drug sensitivity score (Vero E6 [7])	drug sensitivity score (Caco-2 [8])	drug sensitivity score (U2OS [9])	drug sensitivity score (HepG2 [10])	cell viability (Calu-3 [11]; 1 nM) [%]	cell viability (Calu-3 [11]; 10 nM) [%]	cell viability (Calu-3 [11]; 100 nM) [%]	cell viability (Calu-3 [11]; 1000 nM) [%]	cell viability (Calu-3 [11]; 10000 nM) [%]	cell viability (Vero E6 [12]; 1 nM) [%]	cell viability (Vero E6 [12]; 10 nM) [%]	cell viability (Vero E6 [12]; 100 nM) [%]	cell viability (Vero E6 [12]; 1000 nM) [%]	cell viability (Vero E6 [12]; 10000 nM) [%]	cell viability (Caco-2 [13]; 1 nM) [%]	cell viability (Caco-2 [13]; 10 nM) [%]	cell viability (Caco-2 [13]; 100 nM) [%]	cell viability (Caco-2 [13]; 1000 nM) [%]	cell viability (Caco-2 [13]; 10000 nM) [%]	cell viability (U2OS [14]; 1 nM) [%]	cell viability (U2OS [14]; 10 nM) [%]	cell viability (U2OS [14]; 100 nM) [%]	cell viability (U2OS [14]; 1000 nM) [%]	cell viability (U2OS [14]; 10000 nM) [%]	cell viability (HepG2 [15]; 1 nM) [%]	cell viability (HepG2 [15]; 10 nM) [%]	cell viability (HepG2 [15]; 100 nM) [%]	cell viability (HepG2 [15]; 1000 nM) [%]	cell viability (HepG2 [15]; 10000 nM) [%]
O=C(O)C1=CO[C@@H](O[C@@H]2O[C@H](CO)[C@@H](O)[C@H](O)[C@H]2O)[C@@H]2C(CO)=CC[C@H]12 [Geniposidic acid]	> 10	> 10	> 10	> 10	> 10	0	0	0	0	0	98.7	103	95.4	113	108	100	107	97.5	104	101	117	101	106	103	96.3	102	96.2	101	94.5	101	110	105	102	111	94.6
CCC(=O)OCN1C(=O)C=CC1=O [MIRA-1]	> 10	> 10	> 10	> 10	> 10	0	0	0	0	0	90.6	108	104	101	98.9	95.8	91.8	99.8	92	107	90.6	97.5	87.8	94.7	112	99.3	99.4	102	102	105	104	95.9	106	106	103
CCCCCCCCCCCCCCCC[n+]1ccn(Cc2ccccc2)c1C [NH125]	1.64	1.99	1.2	1.16	0.682	7	8	10.5	10.7	13.6	99.2	99.1	89.7	82.1	23.3	104	106	99.5	85.2	0.3	100	92.4	97	59.9	0.8	105	93.7	95.9	57.1	0.1	96.3	106	97.2	32.6	0
N#CC(c1ccnc(OCc2ccc(CN3CCOCC3)cc2)n1)c1nc2ccccc2s1 (stereo not given) [PGL5001]	> 10	> 10	> 10	> 10	> 10	0	0	0.3	0	1.5	112	104	107	98.5	102	99.8	98.3	93.1	101	98.8	103	86	98.4	97	83.5	102	97.5	98.7	103	92	98.4	102	104	89.6	80.9
CCCCCCCCCCCCc1ccc(S(=O)(=O)Nc2nncs2)cc1 [PHT-427]	> 10	> 10	> 10	> 10	> 10	0	0	0	0	0	96.4	94.9	95.6	99.6	99	106	108	102	97.8	104	95.2	95.3	101	98.1	97.4	102	97.5	98.2	98.7	99.9	93.6	106	88.1	102	92.6
N[C@@H](CC(=O)N1CCn2c(nnc2C(F)(F)F)C1)Cc1n[nH]c2c(F)c(F)ccc12 [PK-44]	> 10	> 10	> 10	> 10	> 10	0	0	0	0	0	95.3	96.6	95.8	100	100	102	103	104	98.4	100	87.8	96.3	102	105	92.4	102	100	99.4	104	99.7	102	92	114	91.5	91
O=[N+]([O-])c1cc(Cl)ccc1S(=O)(=O)N1CCN(Cc2ccccc2)CC1 [RN-1747]	> 10	> 10	> 10	> 10	> 10	0	0	0	0	0	96.4	104	94.6	102	106	99.5	92.2	93.4	96.1	102	94.3	94	96.2	106	99.9	94.6	100	96.2	102	106	105	92.9	104	86.9	104
NC(=O)c1[nH]cnc1O [SM-108]	> 10	> 10	> 10	> 10	> 10	0	0	0	0	0	96.2	89	101	107	99.8	102	108	99.7	103	100	91.2	101	102	104	97.9	100	95.7	104	96.6	104	95	93.9	95.8	102	98.7
CCc1c2c(nc3ccc(O)cc13)-c1cc3c(c(=O)n1C2)COC(=O)[C@]3(O)CC [SN-38]	0.0579	0.65	0.183	0.326	0.0122	19.7	11.9	15.6	16.2	32.4	112	85.9	54	25.1	28.8	102	101	71.2	58.3	9.6	99.4	89.5	73	34.1	20.7	107	102	79.9	25.8	4.9	86.6	48.6	29.5	5.6	2.4
COc1ccccc1Oc1c(NS(=O)(=O)c2ccc(C)cn2)nc(-c2ccncc2)nc1OC [SPP301]	> 10	> 10	> 10	> 10	> 10	0	0	0.1	0	0	85.6	96.1	93.4	99	98	102	102	105	94.3	102	93.2	100	105	106	84.4	99.9	102	98.8	100	95.4	106	92.6	93.2	95.1	101
CC(=O)Nc1cccc(Nc2ncnc(N3CCC(OCc4ccc(OC(F)(F)F)cc4)CC3)n2)c1C [TC-N-1752]	> 10	> 10	> 10	> 10	3.47	0	0	0.5	0	3.4	93.9	102	87.1	97.8	107	95.8	102	100	94.4	107	94.7	97.8	94.5	101	80.4	96	98.7	95.2	94.4	99.3	105	95.8	93	104	31.5
Clc1ccc(C2=CCC[C@H]3CC[C@@H]2N3)cn1 [UB-165]	> 10	> 10	> 10	> 10	> 10	0	0	0	0	0	108	107	91.3	93.2	100	101	102	95.6	100	103	92.2	97.7	96.8	93	102	101	107	97.1	97.5	102	98.2	97	93.1	95.5	102
Cc1ccc(S(=O)(=O)Nc2nc3ccccc3nc2Nc2ccc3nsnc3c2)cc1 [XL147]	> 10	> 10	> 10	> 10	> 10	0.4	0	0	0	0	93.3	113	98.6	88.6	97.6	93.7	94.1	100	96.3	95.2	96.1	107	98.6	105	92.9	96	103	104	99.2	95.1	107	101	90.9	97.7	99.5
Cc1ccc(/C(=C\CN2CCCC2)c2cccc(/C=C/C(=O)O)n2)cc1 [acrivastine]	> 10	> 10	> 10	> 10	> 10	0	0	0	0	0	98.2	98.1	104	116	99.1	98.1	87.9	99.8	85.3	112	87.6	92.3	95.4	86.8	115	100	103	98.4	102	103	102	98.2	102	98.3	95.6
